Test results from US9315463B2, “Cyclohexylamine derivatives having β2 adrenergic agonist and M3 muscarinic antagonist activities” (Almirall, S.A., priority 2010, dated 2016).
Where two headings read alike, the source gives them in different places.

Legend:
[1] = target: human adrenergic beta2 receptor (Homo sapiens (Human), UniProt P07550); assay: Human adrenergic β2 receptor binding assay (3H-CGP12177, Sf9 membranes)
Experimental: Test 1: Human Adrenergic β1 and β2 Receptor Binding Assays
The study of binding to human adrenergic beta1 and beta2 receptors was performed using commercial membranes prepared from Sf9 cells where they are overexpressed (Perkin Elmer). The membrane suspensions (16 μg/well for beta1 and 5 μg/well for beta2) in assay buffer (75 mM Tris/HCl with 12.5 mM MgCl2 and 2 mM EDTA pH=7.4) were incubated with 0.14 or 0.6 nM of 3H-CGP12177 (Amersham) for beta 1 and beta 2 receptors respectively in a final volume of 250 μl, in GFC Multiscreen 96 well plates (Millipore) previously treated with assay buffer containing 0.3% PEI (Sigma). Non specific binding was measured in the presence of 1 μM propanolol. Incubation was maintained for 60 minutes at room temperature and with gentle shaking. The binding reactions were terminated by filtration and washing with 2.5 volumes of Tris/HCl 50 mM pH=7.4. The affinity of each test compound to the receptor was determined by using ten different concentrations ran in duplicate. IC50s were calculated using Activity Base software from IDBS and the four parameters-log equation.

[2] = target: human muscarinic M3 receptor (Homo sapiens (Human), UniProt P20309); assay: Human muscarinic M3 receptor binding assay ([3H]-NMS, CHO-K1 membranes)
Chain of human muscarinic M3 receptor (P20309 whole entry): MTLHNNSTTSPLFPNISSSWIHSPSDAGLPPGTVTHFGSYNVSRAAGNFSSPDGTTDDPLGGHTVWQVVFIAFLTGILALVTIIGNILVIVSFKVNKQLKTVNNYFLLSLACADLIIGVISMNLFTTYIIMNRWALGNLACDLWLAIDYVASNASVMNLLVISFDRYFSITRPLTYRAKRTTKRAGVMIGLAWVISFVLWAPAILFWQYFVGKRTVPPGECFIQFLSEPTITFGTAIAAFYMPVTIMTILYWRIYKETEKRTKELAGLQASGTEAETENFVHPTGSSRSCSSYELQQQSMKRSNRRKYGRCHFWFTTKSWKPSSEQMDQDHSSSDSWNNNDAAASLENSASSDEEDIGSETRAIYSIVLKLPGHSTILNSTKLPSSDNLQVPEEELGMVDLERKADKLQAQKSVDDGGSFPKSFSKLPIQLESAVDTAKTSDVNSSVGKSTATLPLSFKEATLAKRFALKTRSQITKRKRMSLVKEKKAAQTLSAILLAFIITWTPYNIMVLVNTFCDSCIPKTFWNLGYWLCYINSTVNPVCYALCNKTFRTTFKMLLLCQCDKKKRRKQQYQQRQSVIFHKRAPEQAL
Experimental: Test 2: Human Muscarinic M1, M2, M3, M4 and M5Receptors Binding Assays
The study of binding to human muscarinic M1, M2, M3, M4 and M5 receptors was performed using commercial membranes (Perkin Elmer) prepared from CHO-K1 cells. Radioligand binding experiments were conducted in 96 polypropylene well plates in a total volume of 200 μl. All reagents were dissolved in assay binding buffer (PBS with calcium and magnesium, SIGMA), except compounds that were dissolved in DMSO 100%. Non-specific binding (NSB) was measured in the presence of 1 μM atropine. [3H]-NMS was used as the radioligand at a concentration of 1 nM for M2, M3 and M5 and 0.3 nM for M1 and M4. [3H]-NMS and antagonists were incubated with membranes that express human muscarinic receptors M1, M2, M3, M4 and M5 at concentrations of 8.1, 10, 4.9, 4.5 and 4.9 μg/well, respectively.
After an incubation period of two hours with gentle shaking, 150 μl of the reaction mix were transferred to 96 GF/C filter plates (Millipore), previously treated with wash buffer (Tris 50 mM; NaCl 100 mM; pH: 7.4), containing 0.05% PEI (Sigma) during one hour. Bound and free [3H]-NMS were separated by rapid vacuum filtration in a manifold from Millipore and washed four times with ice cold wash buffer. After drying 30 min, 30 μl of OPTIPHASE Supermix were added to each well and radioactivity quantified using a Microbeta microplate scintillation counter.
The affinity of each test compound to the receptors was determined by using ten different concentrations ran in duplicate. IC50s were calculated using Activity Base software from IDBS and the four parameters-log equation.

[3] = 3H-CGP12177 displacement, read-out: Binding IC50, nM β2
[4] = [3H]-NMS displacement, read-out: Binding IC50, nM M3

Chain of human adrenergic beta2 receptor (P07550 whole entry): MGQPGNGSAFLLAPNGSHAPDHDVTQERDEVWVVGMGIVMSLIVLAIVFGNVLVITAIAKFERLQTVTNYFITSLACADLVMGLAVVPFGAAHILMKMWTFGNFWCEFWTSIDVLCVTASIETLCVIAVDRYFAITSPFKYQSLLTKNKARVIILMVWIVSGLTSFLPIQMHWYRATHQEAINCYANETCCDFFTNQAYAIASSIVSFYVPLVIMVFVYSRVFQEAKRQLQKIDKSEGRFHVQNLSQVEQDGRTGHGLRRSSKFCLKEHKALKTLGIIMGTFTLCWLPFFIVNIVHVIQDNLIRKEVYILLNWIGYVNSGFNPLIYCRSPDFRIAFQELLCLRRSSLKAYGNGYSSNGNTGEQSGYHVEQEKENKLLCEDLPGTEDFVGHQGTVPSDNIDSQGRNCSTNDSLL

CN(CCCCCCCCCNC[C@H](O)c1ccc(O)c2[nH]c(=O)ccc12)C1CCC(OC(=O)C(O)(c2cccs2)c2cccs2)CC1 (stereo partly drawn) [Example 1, trans-4-[(9-{[(2R)-2-hydroxy-2-(8-hydroxy-2-oxo-1,2-dihydroquinolin-5-yl)ethyl]-amino}nonyl)(methyl)amino]cyclohexyl hydroxy(di-2-thienyl)acetate formiate (2:1)]
IC50 ([1]; read-out: Binding IC50, nM β2, 3H-CGP12177 displacement): 6.4 nM
IC50 ([2]; read-out: Binding IC50, nM M3, [3H]-NMS displacement): 0.2 nM

COc1cc(NC(=O)OCCN(C)[C@H]2CC[C@H](OC(=O)C(O)(c3cccs3)c3cccs3)CC2)c(Cl)cc1CNC[C@H](O)c1ccc(O)c2[nH]c(=O)ccc12 [Example 12, trans-4-[{2-[({[2-chloro-4-({[(2R)-2-hydroxy-2-(8-hydroxy-2-oxo-1,2-dihydroquinolin-5-yl)ethyl]amino}methyl)-5-methoxyphenyl]amino}carbonyl)oxy]ethyl}-(methyl)amino]cyclohexyl hydroxy(di-2-thienyl)acetate hydrofluoride]
IC50 [1, 3]: 1.6 nM
IC50 [2, 4]: 1.6 nM

COc1cc(NC(=O)CCN(C)[C@H]2CC[C@](C)(OC(=O)C(O)(c3cccs3)c3cccs3)CC2)c(Cl)cc1CNC[C@H](O)c1ccc(O)c2[nH]c(=O)ccc12 [Example 13, trans-4-[(3-{[2-chloro-4-({[(2R)-2-hydroxy-2-(8-hydroxy-2-oxo-1,2-dihydroquinolin-5-yl)ethyl]amino}methyl)-5-methoxyphenyl]amino}-3-oxopropyl)(methyl)amino]-1-methylcyclohexyl hydroxy(di-2-thienyl)acetate]
IC50 [1, 3]: 2.2 nM
IC50 [2, 4]: 2.1 nM

COc1cc(NC(=O)CCN(C)[C@H]2CC[C@H](OC(=O)C(O)(c3cccs3)c3cccs3)CC2)c(F)cc1CNC[C@H](O)c1ccc(O)c2[nH]c(=O)ccc12 [Example 16, trans-4-[(3-{[2-fluoro-4-({[(2R)-2-hydroxy-2-(8-hydroxy-2-oxo-1,2-dihydroquinolin-5-yl)ethyl]amino}methyl)-5-methoxyphenyl]amino}-3-oxopropyl)(methyl)amino]-cyclohexyl hydroxy(di-2-thienyl)acetate]
IC50 [1, 3]: 4.8 nM
IC50 [2, 4]: 2 nM

CN(CCC(=O)Nc1cc(F)c(CNC[C@H](O)c2ccc(O)c3[nH]c(=O)ccc23)cc1F)[C@H]1CC[C@H](OC(=O)C(O)(c2cccs2)c2cccs2)CC1 [Example 18, trans-4-[(3-{[2,5-difluoro-4-({[(2R)-2-hydroxy-2-(8-hydroxy-2-oxo-1,2-dihydroquinolin-5-yl)ethyl]amino}methyl)phenyl]amino}-3-oxopropyl)-(methyl)amino]cyclohexyl hydroxy(di-2-thienyl)acetate hydrofluoride (1:2)]
IC50 [1, 3]: 13 nM
IC50 [2, 4]: 1.6 nM

COc1cc(NC(=O)CCN(C)[C@H]2CC[C@H](OC(=O)C(O)(c3cccs3)c3cccs3)CC2)c(Cl)cc1CCNC[C@H](O)c1ccc(O)c2[nH]c(=O)ccc12 [Example 20, trans-4-[(3-{[2-chloro-4-(2-{[(2R)-2-hydroxy-2-(8-hydroxy-2-oxo-1,2-dihydroquinolin-5-yl)ethyl]amino}ethyl)-5-methoxyphenyl]amino}-3-oxopropyl)-(methyl)amino]cyclohexyl hydroxy(di-2-thienyl)acetate hydrofluoride (1:2)]
IC50 [1, 3]: 5.3 nM
IC50 [2, 4]: 0.7 nM

COc1cc(NC(=O)OCCN(C)[C@H]2CC[C@H](OC(=O)C(O)(c3cccs3)c3cccs3)CC2)c(C#N)cc1CNC[C@H](O)c1ccc(O)c2[nH]c(=O)ccc12 [Example 22, trans-4-[{2-[({[2-cyano-4-({[(2R)-2-hydroxy-2-(8-hydroxy-2-oxo-1,2-dihydroquinolin-5-yl)ethyl]amino}methyl)-5-methoxyphenyl]amino}carbonyl)-oxy]ethyl}(methyl)amino]cyclohexyl hydroxy(di-2-thienyl)acetate hydrofluoride (1:2)]
IC50 [1, 3]: 4.5 nM
IC50 [2, 4]: 1.4 nM

COc1cc(OCCCCN(C)[C@H]2CC[C@H](OC(=O)C(O)(c3cccs3)c3cccs3)CC2)c(Cl)cc1CNC[C@H](O)c1ccc(O)c2[nH]c(=O)ccc12 [Example 25, trans-4-[{4-[2-chloro-4-({[(2R)-2-hydroxy-2-(8-hydroxy-2-oxo-1,2-dihydroquinolin-5-yl)ethyl]amino}methyl)-5-methoxyphenoxy]butyl}(methyl)amino]cyclohexyl hydroxy(di-2-thienyl)acetate hydrofluoride (1:2)]
IC50 [1, 3]: 9.6 nM
IC50 [2, 4]: 0.3 nM

COc1cc(NC(=O)OCCN(C)[C@H]2CC[C@H](OC(=O)C(O)(c3cccs3)c3cccs3)CC2)c(Cl)cc1CNC[C@H](O)c1ccc(O)c2c1OCC(=O)N2 [Example 26, trans-4-[{2-[({[2-chloro-4-({[(2R)-2-hydroxy-2-(5-hydroxy-3-oxo-3,4-dihydro-2H-1,4-benzoxazin-8-yl)ethyl]amino}methyl)-5-methoxyphenyl]amino}carbonyl)-oxy]ethyl}(methyl)amino]cyclohexyl hydroxy(di-2-thienyl)acetate]
IC50 [1, 3]: 0.38 nM
IC50 [2, 4]: 1.7 nM

COc1cc(NC(=O)OCCN(C)[C@H]2CC[C@H](OC(=O)[C@](O)(c3ccccc3)C3CCCC3)CC2)c(Cl)cc1CNC[C@H](O)c1ccc(O)c2[nH]c(=O)ccc12 [Example 28, trans-4-[{2-[({[2-chloro-4-({[(2R)-2-hydroxy-2-(8-hydroxy-2-oxo-1,2-dihydroquinolin-5-yl)ethyl]amino}methyl)-5-methoxyphenyl]amino}carbonyl)oxy]ethyl}-(methyl)amino]cyclohexyl (2R)-cyclopentyl (hydroxy)phenylacetate]
IC50 [1, 3]: 1.3 nM
IC50 [2, 4]: 8.5 nM

COc1cc(NC(=O)OCCN(C)[C@H]2CC[C@H](OC(=O)[C@](O)(c3cccs3)C3CCCC3)CC2)c(Cl)cc1CNC[C@H](O)c1ccc(O)c2[nH]c(=O)ccc12 [Example 29, trans-4-[{2-[({[2-chloro-4-({[(2R)-2-hydroxy-2-(8-hydroxy-2-oxo-1,2-dihydroquinolin-5-yl)ethyl]amino}methyl)-5-methoxyphenyl]amino}carbonyl)-oxy]ethyl}(methyl)amino]cyclohexyl (2S)-cyclopentyl(hydroxy)-2-thienylacetate]
IC50 [1, 3]: 1.1 nM
IC50 [2, 4]: 3.8 nM
